According to article PMC4942819 (Scientific Reports, 2016):
Converted amounts (≈) assume the structure as drawn. Like-named read-outs stand apart in the source and are kept apart here.

What was measured:
[1] = test system: Mycobacterium tuberculosis H37Rv; assay: microplate Alamar blue assay (MABA), MIC; format: cell-based; conditions: replicating H37Rv
Mycobacterium avium = assay: microdilution plate assay, MIC; format: cell-based
[2] = test system: Mycobacterium tuberculosis Erdman; assay: microplate Alamar blue assay (MABA), MIC; format: cell-based
Vero cells = assay: cytotoxicity, MTT assay; format: cell-based; conditions: Chlorocebus sabaeus
Procedure: The compounds were examined for toxicity (IC50) using MTT assay. Briefly, cells (3 ~ 5 × 10^3 cells/well) were seeded in a 96-well plate. After 24 h incubation, the cells were treated with various concentrations of drugs for 24, 48, 72 h, respectively. Columns one and two in the assay plates contained-media +0.1% DMSO for a negative control ,Then, 20 μl of a 5 mg/mL MTT solution was added to each well, and the plates were incubated for an additional 2~4 h at 37 °C. The medium was subsequently discarded, and DMSO 150 μL was added to dissolve the formazan. Oscillate 15 min, the OD 570 was measured using a Spectra MAX M5 microplate spectrophotometer (Molecular Devices, CA, USA), and the IC50 values were calculated.
(§1) Compound MIC was conducted by ShangHai Chempartner Co., Ltd (Shanghai, China) using the microplate Alamar Blue assay (MABA) against Mycobacterium tuberculosis H37Ra (ATCC 25177). Cytotoxicity of tested compounds was assessed on Vero cells.

MDR-TB clinical isolates = assay: microbe, parasite or virus in culture; format: cell-based; conditions: Mycobacterium tuberculosis
XDR-TB clinical isolates = assay: microbe, parasite or virus in culture; format: cell-based, Mycobacterium tuberculosis; conditions: Mycobacterium tuberculosis
M. tuberculosis H37Rv = assay: MABA checkerboard synergy assay; format: cell-based, Mycobacterium tuberculosis; conditions: for MIC: Mycobacterium tuberculosis, H37RV, checkerboard, drug alone, read-out: MIC against H37Rv, MIC alone
[3] = test system: M. tuberculosis Erdman in J774A.1 cells; assay: macrophage assay, intracellular activity; format: cell-based, Mycobacterium tuberculosis; conditions: for Fold(log) reduction: decrease of log10 CFU between D7 and treatment group, J774A.1, 0.02 μM (Fig. 2 legend: 0.02 μg/mL)
Procedure: As described previously, J774A.1 cells were grown in 75-cm2 cell culture flasks in 10% FBS in Dulbecco’s modified Eagle’s medium (DMEM) until confluency. The cells were detached using a cell scraper, and then centrifuged at 200 g for 5 min at room temperature. The cells were incubated at 37 °C under 5% CO2 for 16 h after distributing into 24-well plates containing coverslips. M. tuberculosis Erdman (ATCC 35801) were diluted to a final concentration of 1 × 10^5 to 3 × 10^5 CFU/mL with DMEM after thawing and sonicating from frozen cultures. And 500 ul of the dilution was dispensed to each well of a new 24-well plate. Followed by, J774A.1 cells on coverslips were infected by incubation with M. tuberculosis Erdman at 37 °C for 2 h. Coverslips were then washed with HBSS and transferred to new 24-well plates. The Cultures were treated in triplicate with compounds at 0.02 μM containing DMEM and incubated at 37 °C under 5% CO2 for 16 h. At D 0 (for untreated controls) and after 7 days of incubation, macrophage cells were lysed by addition of 200 μL of 0.25% sodium dodecyl sulfate. The plates were incubated at 37 °C for 10 min, and 200 μL of DMEM was added. The lysate was sampled using a microtube and sonicated for 15 s. Then 1:1, 1:10, 1:100, and 1:1,000 dilutions were plated on 7H11 agar plates and CFU counts determined after 2 to 3 weeks of incubation at 37 °C.

[4] = in vivo acute toxicity study; parameters: species or system BALB/c mice; AST: unit not given here; conditions: for ALB / ALP / AST / BUN / CHOL / TP: 1 g/kg i.p., 2 weeks, Mean ± SE, n = 5
Procedure: All animal experiments have been approved by the Institutional Animal Care and Treatment Committee of Sichuan University in China and were carried out in accordance with the approved guidelines. 20 BALB/c mice in both sexes were administered with SKLB-TB1001 CMC suspension at 1 g/kg by intraperitoneal injection, control mice remained untreated. Animals were continuously observed for 24 hours after administration. In each group, numbers of deaths and general behavior were recorded within 2 weeks, LD50 values were calculated. 2 weeks later, animals were sacrificed, blood samples were collected from the eye vein for biochemical and hematological tests. The organs and tissues of animals were removed and fixed in 10% formalin and embedded in paraffin for histological evaluation.

[5] = test system: Mycobacterium tuberculosis H37Ra (ATCC 25177); assay: microplate Alamar Blue assay (MABA), MIC, H37Ra; format: cell-based
Procedure: as §1

plasma protein binding = format: in vitro ADME; conditions: mouse, (M), read-out: Plasma protein binding (converted)
Procedure: (§2) The In vitro ADME/T assays were conducted at WuXi AppTec Co. Ltd.(Shanghai). ClogP was calculated with ChemDraw Ultra 14.0. In the study of bi-directional permeability across MDR1-MDCKII cell monolayer, permeability was correlated with the apparent permeability coefficient Papp (cm/s), which was interpreted as follows: Low permeability( Papp ≤ 1.0×10^-6 cm/s), Moderate permeability(1.0×10^-6 < Papp < 5.5×10^-6 cm/s) or High permeability( Papp ≥ 5.5×10^-6 cm/s). ^aaqueous solubility at room temperature.

MDR1 = assay: bi-directional permeability across MDR1-MDCKII cell monolayer; format: in vitro ADME; conditions: dog, MDCK-MDR1; MDR1-MDCKII
Procedure: as §2

O=[N+]([O-])c1cc(C(F)(F)F)cc2c(=S)nc(N3CCC4(CC3)OCCO4)sc12 [SKLB-TB1001, 8-nitro-2-(1,4-dioxa-8-azaspiro[4.5]decan-8-yl)-6-(trifluoromethyl)-4H-benzo[e][1,3]thiazine-4-thione]
MIC [1]: 0.02 µg/mL (≈ 0.0461 µM)
MIC (Mycobacterium avium): 32 µg/mL (≈ 73.8 µM)
MIC [2]: < 0.05 µg/mL
IC50 (Vero cells; Vero, cytotoxicity, read-out: IC50 Vero): > 100 µg/mL
IC50 (Vero cells; cytotoxicity on Vero cells, read-out: IC50): > 20 µM
MIC (MDR-TB clinical isolates; read-out: MIC, MDR-TB strain M3): < 0.0156 µg/mL
MIC (MDR-TB clinical isolates; read-out: MIC, MDR-TB strain M4): < 0.0156 µg/mL
MIC (MDR-TB clinical isolates; read-out: MIC, MDR-TB strain M8): < 0.0156 µg/mL
MIC (MDR-TB clinical isolates; read-out: MIC, MDR-TB strain M18): < 0.0156 µg/mL
MIC (XDR-TB clinical isolates; read-out: MIC, XDR-TB strain X15): < 0.0156 µg/mL
MIC (XDR-TB clinical isolates; read-out: MIC, XDR-TB strain X17): < 0.0156 µg/mL
MIC (M. tuberculosis H37Rv; 336 h): 0.02 µg/mL
MIC (M. tuberculosis H37Rv): 0.02 µg/mL
FICI (M. tuberculosis H37Rv; combination with linezolid): 1.34
MIC against H37Rv, MIC in combo. (M. tuberculosis H37Rv; in combination with INH): 0.007 µg/mL
MIC against H37Rv, MIC in combo. (M. tuberculosis H37Rv; in combination with LZD): 0.013 µg/mL
MIC against H37Rv, MIC in combo. (M. tuberculosis H37Rv; in combination with MOX): 0.008 µg/mL
FICI (M. tuberculosis H37Rv; in combination with RMP): 0.22
MIC against H37Rv, MIC in combo. (M. tuberculosis H37Rv; in combination with RMP): 0.001 µg/mL
decrease of MIC (M. tuberculosis H37Rv; in the presence of RMP): 5 fold
FICI (M. tuberculosis H37Rv; in the presence of isoniazid): 0.68
FICI (M. tuberculosis H37Rv; in the presence of moxifloxacin): 0.97
Log10 CFU, intracellular Mtb Erdman ([3]; J774A.1 macrophages, 0.02 μM (Fig. 2 legend: 0.02 μg/mL), 7 days): 4.77
Fold(log) reduction [3]: 2.08 log
Fold(log) reduction ([3]; listed as SKLB-1001): 2.1 log
death in acute single dose toxicity studies ([4]; BALB/c mice, 1 g/kg, 14 days): no death
pathological changes in heart, liver, lung, kidneys and spleen ([4]; BALB/c mice, 1 g/kg, 14 days): No observable pathological changes
maximum non-toxic dose ([4]; BALB/c mice, single dose, intraperitoneal): greater than 1 g/kg
ALB ([4]; Female Treatment): 32.18 ± 0.65 g/L
ALP ([4]; Female Treatment): 162.00 ± 4.70 U/L
AST ([4]; Female Treatment): 154.60 ± 5.57
BUN ([4]; Female Treatment): 7.06 ± 0.35 mmol/L
CHOL ([4]; Female Treatment): 3.31 ± 0.08 mmol/L
TP ([4]; Female Treatment): 68.56 ± 1.42 g/L
ALB ([4]; Male Treatment): 32.84 ± 0.44 g/L
ALP ([4]; Male Treatment): 159.20 ± 6.98 U/L
AST ([4]; Male Treatment): 153.40 ± 4.30
BUN ([4]; Male Treatment): 7.10 ± 0.60 mmol/L
CHOL ([4]; Male Treatment): 3.31 ± 0.07 mmol/L
TP ([4]; Male Treatment): 68.38 ± 1.58 g/L
MIC [5]: < 0.1 µM
fraction unbound (plasma protein binding): 0.038
Papp A→B (MDR1): 6.96 ×10⁻⁶ cm/s
Papp B→A (MDR1): 7.27 ×10⁻⁶ cm/s
efflux ratio (MDR1): 1.04
